The text below walks through data of patent US6683095B2, “CDK inhibitors having 3-hydroxychromen-4-one structure” (LG Life Sciences Ltd., priority 2000, dated 2004).

The target in one assay is T1, CDK2/cyclin A (Homo sapiens, UniProt P24941).
T1 construct: His; made in house; host or cells: insect cell (baculovirus co-infection)
As to the kind of experiment: Inhibitory activity against CDK2 (CDK2/cyclin A kinase assay, GST-Rb substrate, 32P-ATP). The format is biochemical. Conditions: 100 μM ATP, 30° C., 30 minutes. The protocol: The inhibitory activity against CDK2 was measured by referring to Kitagawa, M. et al., Oncogene 9; 2549, 1994 and that against CDK4 was measured by referring to Carlson, B. A. et al., Cancer Research 56; 2473, 1996.
The part of amino acid positions 780 to 928 of C-terminus of human Rb protein was isolated, N-terminus thereof was labelled with GST protein, large amount thereof was expressed in bacteria and purified to be used as the substrate for the enzyme.
(§1) The activities of CDK2/cyclin A and CDK4/cyclin D1 were determined as follows. About 100 ng of enzyme was reacted in a total 100 μl of 20 mM Tris(pH 8.0), 100 mM NaCl, 10 mM MgCl2 buffer solution containing 20 μg of GST-Rb protein, 100 μM of ATP and 5 μCi of p^32-γ-ATP at 30° C. for 30 minutes. Then, EDTA was added to a concentration of 20 mM to stop the enzyme reaction. Subsequently, 30 μl of 50% glutathione bead (purchased from Pharmacia) was added to attach GST-Rb to the bead, which was washed three times with 20 mM Tris(pH 8.0), 100 mM NaCl, 10 mM EDTA solution, and then scintillation counting was carried out. To analyze the inhibitory activity of the compound, the inhibitor having a proper concentration was added to the enzyme reaction solution, and then the enzyme activity was measured according to the above method.
The inhibitory activity against CDK2 and CDK4 of the compound of formula (1) according to the present invention was represented as IC50 value (see the following Table 1).

For the next assay, the target named is T2, CDK4/cyclin D1 (Homo sapiens, UniProt P11802).
T2 construct: GST; made in house; host or cells: insect cell
Nature of the assay: Inhibitory activity against CDK4 (CDK4/cyclin D1 kinase assay, GST-Rb substrate, 32P-ATP). The format is biochemical. To be noted: 100 μM ATP, 30° C., 30 minutes. Here is the method:
as §1

T2 sequence (P11802 whole entry): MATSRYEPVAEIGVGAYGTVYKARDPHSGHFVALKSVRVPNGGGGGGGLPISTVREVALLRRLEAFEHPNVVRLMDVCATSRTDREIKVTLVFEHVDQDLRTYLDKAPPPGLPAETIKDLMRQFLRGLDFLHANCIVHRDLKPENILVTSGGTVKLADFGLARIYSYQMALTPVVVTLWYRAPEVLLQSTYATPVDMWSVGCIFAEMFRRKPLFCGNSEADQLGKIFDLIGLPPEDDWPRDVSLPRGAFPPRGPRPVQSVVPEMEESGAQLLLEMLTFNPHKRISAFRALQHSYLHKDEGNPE
T2 sequence (P24385 whole entry partner): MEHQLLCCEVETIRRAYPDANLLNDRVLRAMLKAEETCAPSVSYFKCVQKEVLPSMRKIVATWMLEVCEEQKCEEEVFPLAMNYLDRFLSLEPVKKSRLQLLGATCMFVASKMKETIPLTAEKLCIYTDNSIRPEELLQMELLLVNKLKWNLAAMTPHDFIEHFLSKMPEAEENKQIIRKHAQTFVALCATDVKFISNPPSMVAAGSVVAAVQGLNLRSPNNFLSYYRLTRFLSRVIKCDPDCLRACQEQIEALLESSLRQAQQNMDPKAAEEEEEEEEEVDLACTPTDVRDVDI

As for `Cc1cc(N2CCCS2(=O)=O)c2oc(-c3ccc(O)c(CO)c3)c(O)c(=O)c2c1` [Compound 23, 2-{3-hydroxy-2-[4-hydroxy-3-(hydroxymethyl)phenyl]-6-methyl-4-oxo-4H-chromen-8-yl}-1λ^6-isothiazolidin-1,1-dione], the figures for the concentration for half-maximal inhibition (IC50) against CDK2/cyclin A and against CDK4/cyclin D1 were 1.5 µM and 5 µM, respectively.
For `O=c1c(O)c(-c2ccc(O)cc2)oc2c(N3CCCS3(=O)=O)cc(Nc3ccccc3)cc12` [Compound 31, 2-[6-anilino-3-hydroxy-2-(4-hydroxyphenyl)-4-oxo-4H-chromen-8-yl]-1λ^6-isothiazolidin-1,1-dione] the same measures were 1.4 µM and 3 µM.
In the case of `CNc1cc(N2CCCS2(=O)=O)c2oc(-c3ccc(O)cc3)c(O)c(=O)c2c1` [Compound 32, 2-[3-hydroxy-2-(4-hydroxyphenyl)-6-(methylamino)-4-oxo-4H-chromen-8-yl]-1λ^6-isothiazolidin-1,1-dione], the values for the IC50 at CDK2/cyclin A and against CDK4/cyclin D1 were 0.224 µM and 0.54 µM, respectively.
For the compound `Cc1cc(N2CCCS2(=O)=O)c2oc(-c3ccc(O)c(C(F)(F)F)c3)c(O)c(=O)c2c1` [Compound 24, 2-[3-hydroxy-2-(4-hydroxy-3-trifluoromethylphenyl)-6-methyl-4-oxo-4H-chromen-8-yl]-1λ^6-isothiazolidin-1,1-dione], the concentration for half-maximal inhibition (IC50) (in general, the point on the concentration scale where inhibition reaches its midpoint) turned out to be 0.25 µM against CDK2/cyclin A and 2.1 µM against CDK4/cyclin D1.
For `CC(=O)Nc1cc(C)cc2c(=O)c(O)c(-c3ccc(O)c([N+](=O)[O-])c3)oc12` [Compound 3, N-[2-(4-hydroxy-3-nitrophenyl)-3-hydroxy-6-methyl-4-oxo-4H-chromen-8-yl]acetamide], the half-maximal inhibitory concentration (IC50) was 6 µM against CDK2/cyclin A and 3.9 µM at CDK4/cyclin D1.
For the compound `Nc1cc(N2CCCS2(=O)=O)c2oc(-c3ccc(O)cc3)c(O)c(=O)c2c1` [Compound 25, 2-[6-amino-3-hydroxy-2-(4-hydroxyphenyl)-4-oxo-4H-chromen-8-yl]-1λ^6-isothiazolidin-1,1-dione], the figures for the IC50 against CDK2/cyclin A and against CDK4/cyclin D1 were 0.088 µM and 1.2 µM, respectively.
For `Cc1cc(C2CCN(C)CC2)c2oc(-c3ccc(O)c(C)c3)c(O)c(=O)c2c1` [Compound 42, 3-hydroxy-2-(4-hydroxy-3-methylphenyl)-6-methyl-8-(1-methyl-4-piperidinyl)-4H-chromen-4-one], the IC50 at CDK2/cyclin A was determined as 0.178 µM; against CDK4/cyclin D1, 0.65 µM.
Take `CC(=O)Nc1cc(-c2oc3ccc(C)cc3c(=O)c2O)ccc1O` [Compound 6, N-[2-hydroxy-5-(3-hydroxy-6-methyl-4-oxo-4H-chromen-2-yl)phenyl]acetamide]: the IC50 was found to be 30 µM at CDK2/cyclin A and 10 µM on CDK4/cyclin D1.
Consider `Cc1cc(N)c2oc(-c3ccc(O)c(F)c3)c(O)c(=O)c2c1` [Compound 9, 8-amino-2-(3-fluoro-4-hydroxyphenyl)-3-hydroxy-6-methyl-4H-chromen-4-one], for which the IC50 was 14 µM against CDK2/cyclin A and 16 µM against CDK4/cyclin D1.
For `Cc1cc(C2CCN(C)CC2)c2oc(-c3ccc(O)cc3)c(O)c(=O)c2c1` [Compound 41, 2-(4-hydroxyphenyl)-3-hydroxy-6-methyl-8-(1-methyl-4-piperidinyl)-4H-chromen-4-one] the same measures were 0.56 µM and 0.15 µM.
The corresponding values for `Cc1cc(NC(N)=O)c2oc(-c3ccc(O)c(NC(N)=O)c3)c(O)c(=O)c2c1` [Compound 10, N-{5-[8-(ureido)-3-hydroxy-6-methyl-4-oxo-4H-chromen-2-yl]-2-hydroxyphenyl}urea] are 30 µM and 100 µM.
For `Cc1cc(N2CCCS2(=O)=O)c2oc(-c3ccc(F)c(Cl)c3)c(O)c(=O)c2c1` [Compound 21, 2-[2-(3-chloro-4-fluorophenyl)-3-hydroxy-6-methyl-4-oxo-4H-chromen-8-yl]-1λ^6-isothiazolidin-1,1-dione] the same measures were 13 µM and 24 µM.
Consider `CCN(CC)c1cc(N2CCCS2(=O)=O)c2oc(-c3ccc(O)cc3)c(O)c(=O)c2c1` [Compound 27, 2-[6-(diethylamino)-3-hydroxy-2-(4-hydroxyphenyl)-4-oxo-4H-chromen-8-yl]-1λ^6-isothiazolidin-1,1-dione], for which the IC50 was 9 µM against CDK2/cyclin A and 7.1 µM against CDK4/cyclin D1.
For `CC(=O)Nc1cc(C)cc2c(=O)c(O)c(-c3ccc(O)c(N)c3)oc12` [Compound 7B, N-[2-(3-amino-4-hydroxyphenyl)-3-hydroxy-6-methyl-4-oxo-4H-chromen-8-yl]acetamide] the same measures were 3 µM and 17 µM.
As to `CC(=O)Nc1cc(C)cc2c(=O)c(O)c(-c3ccc(O)c(NC(C)C)c3)oc12` [Compound 7A, N-{2-[4-hydroxy-3-(isopropylamino)phenyl]-3-hydroxy-6-methyl-4-oxo-4H-chromen-8-yl}acetamide], the concentration for half-maximal inhibition (IC50) was 18 µM against CDK2/cyclin A and 47 µM against CDK4/cyclin D1.
In the case of `CN(C)c1cc(N2CCCS2(=O)=O)c2oc(-c3ccc(O)cc3)c(O)c(=O)c2c1` [Compound 26, 2-[6-(dimethylamino)-3-hydroxy-2-(4-hydroxyphenyl)-4-oxo-4H-chromen-8-y]-1λ^6-isothiazolidin-1,1-dione], the results for the IC50 at CDK2/cyclin A and against CDK4/cyclin D1 were 0.22 µM and 0.71 µM, respectively.
The corresponding values for `Cc1cc(N2CCCS2(=O)=O)c2oc(-c3ccc(O)c(C)c3)c(O)c(=O)c2c1` [Compound 22, 2-[3-hydroxy-2-(4-hydroxy-3-methylphenyl)-6-methyl-4-oxo-4H-chromen-8-yl]-1λ^6-isothiazolidin-1,1-dione] are 0.7 µM and 2 µM.
The corresponding values for `Cc1cc(N2CCCS2(=O)=O)c2oc(-c3ccc(O)c(C#N)c3)c(O)c(=O)c2c1` [Compound 19, 5-[8-(1,1-dioxo-1λ^6-isothiazolidin-2-yl)-3-hydroxy-6-methyl-4-oxo-4H-chromen-2-yl]-2-hydroxybenzonitrile] are 1.4 µM and 0.79 µM.
Turning to `O=c1c(O)c(-c2ccc(O)cc2)oc2c(N3CCCS3(=O)=O)cc(NC3CCNCC3)cc12` [Compound 29, 2-[3-hydroxy-2-(4-hydroxyphenyl)-4-oxo-6-(4-piperidinylamino)-4H-chromen-8-yl]-1λ^6-isothiazolidin-1,1-dione], the values for the IC50 at CDK2/cyclin A and against CDK4/cyclin D1 were 1.8 µM and 1.7 µM, respectively.
For `Cc1cc(N)c2oc(-c3ccc(O)c(N)c3)c(O)c(=O)c2c1` [Compound 1, 8-amino-2-(3-amino-4-hydroxyphenyl)-3-hydroxy-6-methyl-4H-chromen-4-one] the same measures were 1.4 µM and 20 µM.
In the case of `Cc1cc(C2CCN(C)CC2)c2oc(-c3ccc(O)c(C(F)(F)F)c3)c(O)c(=O)c2c1` [Compound 43, 3-hydroxy-2-(4-hydroxy-3-trifluoromethylphenyl)-6-methyl-8-(1-methyl-4-piperidinyl)-4H-chromen-4-one], the IC50 on CDK2/cyclin A was 6.3 µM; on CDK4/cyclin D1, < 1 µM.
For the compound `O=c1c(O)c(-c2ccc(O)cc2)oc2c(N3CCCS3(=O)=O)cc(NC3CCCCC3)cc12` [Compound 30, 2-[6-(cyclohexylamino)-3-hydroxy-2-(4-hydroxyphenyl)-4-oxo-4H-chromen-8-yl]-1λ^6-isothiazolidin-1,1-dione], the IC50 against CDK2/cyclin A came out at 5.6 µM; against CDK4/cyclin D1, 1.6 µM.
The corresponding values for `Cc1cc(N2CCCS2(=O)=O)c2oc(-c3ccc(O)c(F)c3)c(O)c(=O)c2c1` [Compound 16, 2-[2-(3-fluoro-4-hydroxyphenyl)-3-hydroxy-6-methyl-4-oxo-4H-chromen-8-yl]-1λ^6-isothiazolidin-1,1-dione] are 0.45 µM and 1.1 µM.
Regarding `O=c1c(O)c(-c2ccc(O)cc2)oc2c(N3CCCS3(=O)=O)cc(NCc3ccccc3)cc12` [Compound 28, 2-[6-(benzylamino)-3-hydroxy-2-(4-hydroxyphenyl)-4-oxo-4H-chromen-8-yl]-1λ^6-isothiazolidin-1,1-dione], the values for the IC50 on CDK2/cyclin A and against CDK4/cyclin D1 were 2.24 µM and 3.2 µM, respectively.
The corresponding values for `Cc1cc(N2CCCS2(=O)=O)c2oc(-c3ccc(O)cc3O)c(O)c(=O)c2c1` [Compound 20, 2-[2-(2,4-dihydroxyphenyl)-3-hydroxy-6-methyl-4-oxo-4H-chromen-8-yl]-1λ^6-isothiazolidin-1,1-dione] are 1000 µM and 500 µM.
The corresponding values for `Cc1cc(N)c2oc(-c3ccc(O)cc3)c(O)c(=O)c2c1` [Compound 4, 8-amino-2-(4-hydroxyphenyl)-3-hydroxy-6-methyl-4H-chromen-4-one] are 2.1 µM and 2.1 µM.
In the case of `Cc1cc([N+](=O)[O-])c2oc(-c3ccc(O)c([N+](=O)[O-])c3)c(O)c(=O)c2c1` [Compound 2, 2-(4-hydroxy-3-nitrophenyl)-3-hydroxy-6-methyl-8-nitro-4H-chromen-4-one], the IC50 against CDK2/cyclin A stood at 4.5 µM; against CDK4/cyclin D1, 7.7 µM.
Consider `CC(=O)Nc1cc(N2CCCS2(=O)=O)c2oc(-c3ccc(O)c(Cl)c3)c(O)c(=O)c2c1` [Compound 34, N-[2-(3-chloro-4-hydroxyphenyl)-8-(1,1dioxo-1λ^6-isothiazolidin-2-yl)-3-hydroxy-4-oxo-4H-chromen-6-yl]acetamide], for which the IC50 was determined as 1.3 µM at CDK2/cyclin A and 1.8 µM at CDK4/cyclin D1.
